Reference: the NIST ThermoML archive (doi:10.1021/je050074w)
Numbers after ± are expanded uncertainties.

Test: an = mass per volume of the nth substance listed, in kg/m3
Conditions: Wilhelmy plate method

CCCCCCCCCCCCOS(=O)(=O)[O-].[Na+] [sodium dodecyl sulfate] + O
surface tension liquid-gas (288.15 K, a1 = 0.00627): 71.99 ± 1.8 mN/m
surface tension liquid-gas (288.15 K, a1 = 0.0157): 65.28 ± 1.6 mN/m
surface tension liquid-gas (288.15 K, a1 = 0.0273): 64.13 ± 1.6 mN/m
surface tension liquid-gas (288.15 K, a1 = 0.0338): 69.24 ± 1.7 mN/m
surface tension liquid-gas (289.15 K, a1 = 0.00627): 71.91 ± 1.8 mN/m
surface tension liquid-gas (289.15 K, a1 = 0.0157): 65.17 ± 1.6 mN/m
surface tension liquid-gas (289.15 K, a1 = 0.0273): 64.05 ± 1.6 mN/m
surface tension liquid-gas (289.15 K, a1 = 0.0338): 69.1 ± 1.7 mN/m
surface tension liquid-gas (290.15 K, a1 = 0.00627): 71.74 ± 1.8 mN/m
surface tension liquid-gas (290.15 K, a1 = 0.0157): 65 ± 1.6 mN/m
surface tension liquid-gas (290.15 K, a1 = 0.0273): 63.88 ± 1.6 mN/m
surface tension liquid-gas (290.15 K, a1 = 0.0338): 68.89 ± 1.7 mN/m
surface tension liquid-gas (291.15 K, a1 = 0.00627): 71.58 ± 1.8 mN/m
surface tension liquid-gas (291.15 K, a1 = 0.0157): 64.83 ± 1.6 mN/m
surface tension liquid-gas (291.15 K, a1 = 0.0273): 63.72 ± 1.6 mN/m
surface tension liquid-gas (291.15 K, a1 = 0.0338): 68.76 ± 1.7 mN/m
surface tension liquid-gas (292.15 K, a1 = 0.00627): 71.41 ± 1.8 mN/m
surface tension liquid-gas (292.15 K, a1 = 0.0157): 64.67 ± 1.6 mN/m
surface tension liquid-gas (292.15 K, a1 = 0.0273): 63.56 ± 1.6 mN/m
surface tension liquid-gas (292.15 K, a1 = 0.0338): 68.59 ± 1.7 mN/m
surface tension liquid-gas (293.15 K, a1 = 0.00627): 71.24 ± 1.8 mN/m
surface tension liquid-gas (293.15 K, a1 = 0.0157): 64.48 ± 1.6 mN/m
surface tension liquid-gas (293.15 K, a1 = 0.0273): 63.37 ± 1.6 mN/m
surface tension liquid-gas (293.15 K, a1 = 0.0338): 68.45 ± 1.7 mN/m
surface tension liquid-gas (294.15 K, a1 = 0.00627): 71.07 ± 1.8 mN/m
surface tension liquid-gas (294.15 K, a1 = 0.0157): 64.32 ± 1.6 mN/m
surface tension liquid-gas (294.15 K, a1 = 0.0273): 63.19 ± 1.6 mN/m
surface tension liquid-gas (294.15 K, a1 = 0.0338): 68.28 ± 1.7 mN/m
surface tension liquid-gas (295.15 K, a1 = 0.00627): 70.89 ± 1.8 mN/m
surface tension liquid-gas (295.15 K, a1 = 0.0157): 64.17 ± 1.6 mN/m
surface tension liquid-gas (295.15 K, a1 = 0.0273): 63.02 ± 1.6 mN/m
surface tension liquid-gas (295.15 K, a1 = 0.0338): 68.11 ± 1.7 mN/m
surface tension liquid-gas (296.15 K, a1 = 0.00627): 70.76 ± 1.8 mN/m
surface tension liquid-gas (296.15 K, a1 = 0.0157): 64.03 ± 1.6 mN/m
surface tension liquid-gas (296.15 K, a1 = 0.0273): 62.88 ± 1.6 mN/m
surface tension liquid-gas (296.15 K, a1 = 0.0338): 67.97 ± 1.7 mN/m
surface tension liquid-gas (297.15 K, a1 = 0.00627): 70.59 ± 1.8 mN/m
surface tension liquid-gas (297.15 K, a1 = 0.0157): 63.86 ± 1.6 mN/m
surface tension liquid-gas (297.15 K, a1 = 0.0273): 62.74 ± 1.6 mN/m
surface tension liquid-gas (297.15 K, a1 = 0.0338): 67.78 ± 1.7 mN/m
surface tension liquid-gas (298.15 K, a1 = 0.00627): 70.43 ± 1.8 mN/m
surface tension liquid-gas (298.15 K, a1 = 0.0157): 63.71 ± 1.6 mN/m
surface tension liquid-gas (298.15 K, a1 = 0.0273): 62.6 ± 1.6 mN/m
surface tension liquid-gas (298.15 K, a1 = 0.0338): 67.63 ± 1.7 mN/m
surface tension liquid-gas (299.15 K, a1 = 0.00627): 70.29 ± 1.8 mN/m
surface tension liquid-gas (299.15 K, a1 = 0.0157): 63.57 ± 1.6 mN/m
surface tension liquid-gas (299.15 K, a1 = 0.0273): 62.49 ± 1.6 mN/m
surface tension liquid-gas (299.15 K, a1 = 0.0338): 67.44 ± 1.7 mN/m
surface tension liquid-gas (300.15 K, a1 = 0.00627): 70.16 ± 1.8 mN/m
surface tension liquid-gas (300.15 K, a1 = 0.0157): 63.41 ± 1.6 mN/m
surface tension liquid-gas (300.15 K, a1 = 0.0273): 62.36 ± 1.6 mN/m
surface tension liquid-gas (300.15 K, a1 = 0.0338): 67.29 ± 1.7 mN/m
surface tension liquid-gas (301.15 K, a1 = 0.00627): 70.01 ± 1.8 mN/m
surface tension liquid-gas (301.15 K, a1 = 0.0157): 63.26 ± 1.6 mN/m
surface tension liquid-gas (301.15 K, a1 = 0.0273): 62.25 ± 1.6 mN/m
surface tension liquid-gas (301.15 K, a1 = 0.0338): 67.11 ± 1.7 mN/m
surface tension liquid-gas (302.15 K, a1 = 0.00627): 69.84 ± 1.8 mN/m
surface tension liquid-gas (302.15 K, a1 = 0.0157): 63.08 ± 1.6 mN/m
surface tension liquid-gas (302.15 K, a1 = 0.0273): 62.11 ± 1.6 mN/m
surface tension liquid-gas (302.15 K, a1 = 0.0338): 66.95 ± 1.7 mN/m
surface tension liquid-gas (303.15 K, a1 = 0.00627): 69.68 ± 1.7 mN/m
surface tension liquid-gas (303.15 K, a1 = 0.0157): 62.94 ± 1.6 mN/m
surface tension liquid-gas (303.15 K, a1 = 0.0273): 62.01 ± 1.6 mN/m
surface tension liquid-gas (303.15 K, a1 = 0.0338): 66.77 ± 1.7 mN/m
surface tension liquid-gas (304.15 K, a1 = 0.00627): 69.53 ± 1.7 mN/m
surface tension liquid-gas (304.15 K, a1 = 0.0157): 62.76 ± 1.6 mN/m
surface tension liquid-gas (304.15 K, a1 = 0.0273): 61.9 ± 1.6 mN/m
surface tension liquid-gas (304.15 K, a1 = 0.0338): 66.61 ± 1.7 mN/m
surface tension liquid-gas (305.15 K, a1 = 0.00627): 69.39 ± 1.7 mN/m
surface tension liquid-gas (305.15 K, a1 = 0.0157): 62.66 ± 1.6 mN/m
surface tension liquid-gas (305.15 K, a1 = 0.0273): 61.83 ± 1.6 mN/m
surface tension liquid-gas (305.15 K, a1 = 0.0338): 66.42 ± 1.7 mN/m
surface tension liquid-gas (306.15 K, a1 = 0.00627): 69.23 ± 1.7 mN/m
surface tension liquid-gas (306.15 K, a1 = 0.0157): 62.52 ± 1.6 mN/m
surface tension liquid-gas (306.15 K, a1 = 0.0273): 61.72 ± 1.5 mN/m
surface tension liquid-gas (306.15 K, a1 = 0.0338): 66.25 ± 1.7 mN/m
surface tension liquid-gas (307.15 K, a1 = 0.00627): 69.08 ± 1.7 mN/m
surface tension liquid-gas (307.15 K, a1 = 0.0157): 62.32 ± 1.6 mN/m
surface tension liquid-gas (307.15 K, a1 = 0.0273): 61.62 ± 1.5 mN/m
surface tension liquid-gas (307.15 K, a1 = 0.0338): 66.04 ± 1.6 mN/m
surface tension liquid-gas (308.15 K, a1 = 0.00627): 68.94 ± 1.7 mN/m
surface tension liquid-gas (308.15 K, a1 = 0.0157): 62.16 ± 1.6 mN/m
surface tension liquid-gas (308.15 K, a1 = 0.0273): 61.54 ± 1.5 mN/m
